According to patent US20240034758A1, “NOVEL PEPTIDE AND USE THEREOF” (MEDI & GENE, priority 2020, published 2024):

System: mHypoE-N41 hypothalamic cells
Assay: Expression of appetite-promoting genes in hypothalamic cells
Type: cell-based
Conditions: 100 nM, 24 hours; vs PBS control
Experimental: Furthermore, to confirm the appetite-regulating effect of the functional peptide in mHypoE-N41 hypothalamic cells, the hypothalamic cells were treated with PBS (control) and 100 nM mouse-derived functional peptide (experimental group) for 24 hours.

Row | Substance | decrease of Agrp gene level compared to the control | decrease of NPY gene level compared to the control
1 | human-derived functional peptide: Human IF1-derived peptide, SEQ ID NO: 2: GSDQSENVDRGAGSIREAGGAFGKREQAEEERYFRAQSREQLAALKK (listed as Homo sapiens) | 47.5% | 59.6%
2 | mouse-derived functional peptide: Mouse IF1-derived peptide, SEQ ID NO: 1: VSDSSDSMDTGAGSIREAGGAFGKREKAEEDRYFREKTKEQLAALRK (listed as Mus musculus) | 50.2% | 48.8%
